# Measured values taken from patent publication US12239643B2, “Therapeutic agent for inflammatory diseases, autoimmune diseases, fibrotic diseases, and cancer diseases” (MEIJI SEIKA PHARMA CO., LTD., priority 2018, dated 2025).
# Test system: PDE4
# Test: Evaluation of PDE4 inhibitory activity, scintillation proximity assay
# Format: biochemical
# Settings: scintillation proximity assay; class symbols of Evaluation 1; read-out: PDE4 Inhibitory Activity (concentration for the inhibition rate of 50%, IC50), Evaluation 1
# Outline: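 IC50 was derived from inhibition curves, referenced to an enzyme-free blank and a DMSO-only control. Compound, PDE4 preparation and tritiated cAMP reacted 120 min at RT in Tris-HCl buffer (pH 7.4) with MgCl2, EGTA and BSA; YSi-SPA beads with ZnSO4 bound product before scintillation counting.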
row,Compound,IC50 [nM]
1,"OC(c1cc(-c2nccs2)c2oc(N3CC4CC(C3)N4)nc2c1)C(F)(F)F (centres unmarked) [Example 135, 1-(2-(3,6-Diazabicyclo[3.1.1]heptan-3-yl)-7-(thiazol-2-yl)benzo[d]oxazol-5-yl)-2,2,2-trifluoroethan-1-ol]",< 100
2,"CC(=O)OC(c1cc(-c2nccs2)c2oc(N3CC4CCC(C3)N4)nc2c1)C(F)(F)F (centres unmarked) [Example 141, 1-(2-(3,8-Diazabicyclo[3.2.1]octan-3-yl)-7-(thiazol-2-yl)benzo[d]oxazol-5-yl)-2,2,2-trifluoroethyl acetate]",< 100
3,"COC(C)c1cc(-c2nccs2)c2oc(N3CC4CCC(C3)N4)nc2c1 (centres unmarked) [Example 110, 2-(3,8-Diazabicyclo[3.2.1]octan-3-yl)-5-(1-methoxyethyl)-7-(thiazol-2-yl)benzo[d]oxazole]",< 100
4,"Cc1ccc(-c2nccs2)c2oc(N3CC4CCCC(C3)N4)nc12 [Example 27, 2-(3,9-Diazabicyclo[3.3.1]nonan-3-yl)-4-methyl-7-(thiazol-2-yl)benzo[d]oxazole]",< 100
5,"CC(C)c1cc(-c2nccs2)c2oc(N3CC4COCC(C3)N4)nc2c1 [Example 23, 7-(5-Isopropyl-7-(thiazol-2-yl)benzo[d]oxazol-2-yl)-3-oxa-7,9-diazabicyclo[3.3.1]nonane]",100 to 1000
6,"COC(c1ccc(-c2nccs2)c2oc(N3CC4CC(C3)N4)nc12)C(F)(F)F (centres unmarked) [Example 122, 2-(3,6-Diazabicyclo[3.1.1]heptan-3-yl)-7-(thiazol-2-yl)-4-(2,2,2-trifluoro-1-methoxyethyl)benzo[d]oxazole]",< 100
7,"COC(C)(C)c1cc(-c2nccs2)c2oc(N3CC4CCC(C3)N4)nc2c1C(F)(F)F [Example 171, 2-(3,8-Diazabicyclo[3.2.1]octan-3-yl)-5-(2-methoxypropan-2-yl)-7-(thiazol-2-yl)-4-(trifluoromethyl)benzo[d]oxazole]",< 100
8,"OCc1ccc(-c2nccs2)c2oc(N3CC4CC(C3)N4)nc12 [Example 133, (2-(3,6-Diazabicyclo[3.1.1]heptan-3-yl)-7-(thiazol-2-yl)benzo[d]oxazol-4-yl)methanol]",< 100
9,"NS(=O)(=O)c1cc(-c2nccs2)c2oc(N3CC4CCC(C3)N4)nc2c1 [Example 57, 2-(3,8-Diazabicyclo[3.2.1]octan-3-yl)-7-(thiazol-2-yl)benzo[d]oxazole-5-sulfonamide]",< 100
10,"CCOC(=O)c1cc(-n2cccn2)c2oc(N3CC4CC(C3)N4)nc2c1 [Example 91, Ethyl 2-(3,6-diazabicyclo[3.1.1]heptan-3-yl)-7-(1H-pyrazol-1-yl)benzo[d]oxazole-5-carboxylate]",> 1000
11,"C[S+]([O-])c1cc(-c2nccs2)c2oc(N3CC4CC(C3)N4)nc2c1 (centres unmarked) [Example 43, 2-(3,6-Diazabicyclo[3.1.1]heptan-3-yl)-5-(methylsulfinyl)-7-(thiazol-2-yl)benzo[d]oxazole]",< 100
12,"Oc1cc(-c2nccs2)c2oc(N3CC4CC(C3)N4)nc2c1 [Example 64, 2-(3,6-Diazabicyclo[3.1.1]heptan-3-yl)-7-(thiazol-2-yl)benzo[d]oxazol-5-ol]",< 100
13,"CCOC(=O)c1cc(-c2nccs2)c2oc(N3CC4CCC(C3)N4)nc2c1 [Example 86, Ethyl 2-(3,8-diazabicyclo[3.2.1]octan-3-yl)-7-(thiazol-2-yl)benzo[d]oxazole-5-carboxylate]",< 100
14,"OC(O)(c1cc(-c2nccs2)c2oc(N3CC4CCCC(C3)N4)nc2c1)C(F)(F)F [Example 156, 1-(2-(3,9-Diazabicyclo[3.3.1]nonan-3-yl)-7-(thiazol-2-yl)benzo[d]oxazol-5-yl)-2,2,2-trifluoroethane-1,1-diol]",< 100
15,"FC(F)(F)Oc1c(Cl)cc(-c2nccs2)c2oc(N3CC4CCC(C3)N4)nc12 [Example 1, 2-(3,8-Diazabicyclo[3.2.1]octan-3-yl)-5-chloro-7-(thiazol-2-yl)-4-(trifluoromethoxy)benzo[d]oxazole]",< 100
16,"CC(C)c1cc(-c2nccs2)c2oc(N3CC4CCC(C3)N4)nc2c1 [Example 21, 2-(3,8-Diazabicyclo[3.2.1]octan-3-yl)-5-isopropyl-7-(thiazol-2-yl)benzo[d]oxazole]",< 100

# Same assay, conditions: scintillation proximity assay; read-out: PDE4 Inhibitory Activity (Evaluation 1; concentration for the inhibition rate of 50%)
row,Compound,IC50 [nM]
1,"CC(C)C(O)C(F)(F)Oc1ccc(-c2nccs2)c2oc(N3CC4CC(C3)N4)nc12 (centres unmarked) [Example 362, 1-((2-(3,6-Diazabicyclo[3.1.1]heptan-3-yl)-7-(thiazol-2-yl)benzo[d]oxazol-4-yl)oxy)-1,1-difluoro-3-methylbutan-2-ol]",< 100
2,"FC(F)(F)COC(c1ccc(-c2nccs2)c2oc(N3CC4CC(C3)N4)nc12)C(F)(F)F (centres unmarked) [Example 223, 2-(3,6-Diazabicyclo[3.1.1]heptan-3-yl)-7-(thiazol-2-yl)-4-(2,2,2-trifluoro-1-(2,2,2-trifluoroethoxy)ethyl)benzo[d]oxazole]",< 100
3,"c1csc(-c2ccc(OC3CCCOC3)c3nc(N4CC5CCC(C4)N5)oc23)n1 (centres unmarked) [Example 262, 2-(3,8-Diazabicyclo[3.2.1]octan-3-yl)-4-((tetrahydro-2H-pyran-3-yl)oxy)-7-(thiazol-2-yl)benzo[d]oxazole]",< 100
4,"CC(C)(O)COc1ccc(-c2nccs2)c2oc(N3CC4CCC(C3)N4)nc12 [Example 264, 1-((2-(3,8-Diazabicyclo[3.2.1]octan-3-yl)-7-(thiazol-2-yl)benzo[d]oxazol-4-yl)oxy)-2-methylpropan-2-ol]",< 100
5,"CC(O)c1cc(-c2nccs2)c2oc(N3CC4CC(C3)N4)nc2c1OC(F)(F)F (centres unmarked) [Example 273, 1-(2-(3,6-Diazabicyclo[3.1.1]heptan-3-yl)-7-(thiazol-2-yl)-4-(trifluoromethoxy)benzo[d]oxazol-5-yl)ethan-1-ol]",< 100
6,"CC(O)COC(c1ccc(-c2nccs2)c2oc(N3CC4CC(C3)N4)nc12)C(F)(F)F (centres unmarked) [Example 261, 1-(1-(2-(3,6-Diazabicyclo[3.1.1]heptan-3-yl)-7-(thiazol-2-yl)benzo[d]oxazol-4-yl)-2,2,2-trifluoroethoxy)propan-2-ol]",< 100
7,"FC(F)Oc1ccc(-c2nccs2)c2oc(N3CC4CCC(C3)N4)nc12 [Example 263, 2-(3,8-Diazabicyclo[3.2.1]octan-3-yl)-4-(difluoromethoxy)-7-(thiazol-2-yl)benzo[d]oxazole]",< 100
8,"COC(C)c1ccc(-c2nccs2)c2oc(N3CC4CC(C3)N4)nc12 (centres unmarked) [Example 241, 2-(3,6-Diazabicyclo[3.1.1]heptan-3-yl)-4-(1-methoxyethyl)-7-(thiazol-2-yl)benzo[d]oxazole]",< 100
9,"CC(C)(O)COC(c1ccc(-c2cscn2)c2oc(N3CC4CC(C3)N4)nc12)C(F)(F)F (centres unmarked) [Example 284, 1-(1-(2-(3,6-Diazabicyclo[3.1.1]heptan-3-yl)-7-(thiazol-4-yl)benzo[d]oxazol-4-yl)-2,2,2-trifluoroethoxy)-2-methylpropan-2-ol]",< 100
10,"O=C(O)c1cc(-c2nccs2)c2oc(N3CC4CCCC(C3)N4)nc2c1OC(F)(F)F [Example 191, 2-(3,9-Diazabicyclo[3.3.1]nonan-3-yl)-7-(thiazol-2-yl)-4-(trifluoromethoxy)benzo[d]oxazole-5-carboxylic acid]",100 to 1000
11,"COC(C)c1cc(-c2nccs2)c2oc(N3CC4CC(C3)N4)nc2c1C(F)(F)F (centres unmarked) [Example 185, 2-(3,6-Diazabicyclo[3.1.1]heptan-3-yl)-5-(1-methoxyethyl)-7-(thiazol-2-yl)-4-(trifluoromethyl)benzo[d]oxazole]",< 100
12,"COC(c1cc(-c2nccs2)c2oc(N3CC4CCC(C3)N4)nc2c1OC(F)(F)F)C(F)F (centres unmarked) [Example 209, 2-(3,8-Diazabicyclo[3.2.1]octan-3-yl)-5-(2,2-difluoro-1-methoxyethyl)-7-(thiazol-2-yl)-4-(trifluoromethoxy)benzo[d]oxazole]",< 100
13,"COC(C)c1ccc(-c2nccs2)c2oc(N3CC4CCC(C3)N4)nc12 (centres unmarked) [Example 242, 2-(3,8-Diazabicyclo[3.2.1]octan-3-yl)-4-(1-methoxyethyl)-7-(thiazol-2-yl)benzo[d]oxazole]",< 100
14,"FC(F)(Oc1ccc(-c2nccs2)c2oc(N3CC4CC(C3)N4)nc12)c1nc2ccccc2o1 [Example 403, 4-(Benzo[d]oxazol-2-yldifluoromethoxy)-2-(3,6-diazabicyclo[3.1.1]heptan-3-yl)-7-(thiazol-2-yl)benzo[d]oxazole]",< 100
15,"COC(=O)c1ccc(-c2nccs2)c2oc(N3CC4CCC(C3)N4)nc12 [Example 237, Methyl 2-(3,8-diazabicyclo[3.2.1]octan-3-yl)-7-(thiazol-2-yl)benzo[d]oxazole-4-carboxylate]",< 100
16,"COCCOC(c1ccc(-c2nccs2)c2oc(N3CC4CC(C3)N4)nc12)C(F)(F)F (centres unmarked) [Example 229, 2-(3,6-Diazabicyclo[3.1.1]heptan-3-yl)-7-(thiazol-2-yl)-4-(2,2,2-trifluoro-1-(2-methoxyethoxy)ethyl)benzo[d]oxazole]",< 100
17,"COC(C)(c1cc(-c2nccs2)c2oc(N3CC4CC(C3)N4)nc2c1OC(F)(F)F)C(F)(F)F (centres unmarked) [Example 214, 2-(3,6-Diazabicyclo[3.1.1]heptan-3-yl)-7-(thiazol-2-yl)-5-(1,1,1-trifluoro-2-methoxypropan-2-yl)-4-(trifluoromethoxy)benzo[d]oxazole]",< 100
18,"OC1(c2cc(-c3cscn3)c3oc(N4CC5CC(C4)N5)nc3c2OC(F)(F)F)CC1 [Example 299, 1-(2-(3,6-Diazabicyclo[3.1.1]heptan-3-yl)-7-(thiazol-4-yl)-4-(trifluoromethoxy)benzo[d]oxazol-5-yl)cyclopropan-1-ol]",< 100
19,"CC(O)c1cc(-c2nccs2)c2oc(N3CC4CCC(C3)N4O)nc2c1OC(F)(F)F (centres unmarked) [Example 383, 3-(5-(1-Hydroxyethyl)-7-(thiazol-2-yl)-4-(trifluoromethoxy)benzo[d]oxazol-2-yl)-3,8-diazabicyclo[3.2.1]octan-8-ol]",> 1000
